Counter-ions that a name gives are not always drawn.
Legend:
GAA KO mouse = assay: GAA activity in heart and diaphragm tissue of GAA KO mouse, rhGAA with or without 1-DNJ-HCl; format: in vivo
Protocol: Three groups of GAA KO Mice were administered one of the following formulations: […]
(1) Control (No Treatment);
Heart and Diaphragm tissue homogenates were harvested and rhGAA activity was measured using the fluorogenic substrate (4-MUG).

[1] = target: T1, recombinant human GAA (Myozyme®, Genzyme Corp.) (Homo sapiens, UniProt P10253); assay: SYPRO Orange protein folding monitored at 37° C. over 24 hours; format: binding; details: plasma pH (7.4), 100 μM 1-DNJ-HCl
T1 construct: purchased Genzyme Corp
Protocol: FIG. 2B depicts a parallel SYPRO Orange thermal stability experiment to determine if the loss of enzyme activity shown in FIG. 2A, particularly the loss of Myozyme activity at ER pH (7.4), correlates with protein unfolding and denaturation.
In order to determine if loss of initial enzyme activity is correlated to failure to maintain a proper conformation, a SYPRO Orange thermal stability experiment was performed on the samples above as generally described in Example 1. […] Based on this experiment, the % of GAA folded was estimated and plotted in FIG. 2B.

[2] = target: T2, GAA in cell lines derived from late-onset Pompe patients with the IVS 1 (−13 T>G) splicing defect (Homo sapiens, UniProt P10253); assay: GAA levels in cell lines derived from late-onset Pompe patients; format: cell-based; details: IVS 1 (−13 T>G) splicing mutation
T2 construct: endogenous in cells

[3] = target: T1, recombinant human GAA (Myozyme®, Genzyme Corp.); assay: SYPRO Orange thermal stability assay (heat-induced denaturation); format: binding
From the text: The thermal stability assay utilizes heat to induce protein denaturation, which is monitored using a SYPRO Orange dye that fluoresces upon binding to hydrophobic amino acids (which are not exposed in a folded protein).
FIG. 5 depict the results of a thermal stability assay that utilizes heat to induce protein denaturation, which is monitored using a SYPRO Orange dye that fluoresces upon binding to hydrophobic amino acids (which are not exposed in a folded protein).
Denaturation is monitored using a SYPRO Orange dye that fluoresces upon binding to hydrophobic amino acids (which are not exposed in a folded protein).
The thermal stability was performed at pH 7.4 for two formulations, which corresponds to the pH of the ER.
A thermal stability experiment as generally described in Example 1 was performed on four compositions:
(1) Myozyme only composition;

GAA KO mice [4] = assay: Myozyme tissue uptake (GAA activity, 4-MUG) in GAA KO mice with or without oral 1-DNJ-HCl; format: in vivo
From the text: Enzymatic activity as determined using a 4-MUG fluorogenic substrate assay.

rhGAA (Myozyme™) = target: T3, rhGAA (Myozyme™) (Homo sapiens, UniProt P10253); assay: rhGAA enzyme inactivation in citrate anti-coagulated whole blood at 37° C. (4-MUG); format: biochemical
T3 construct: purchased Genzyme Corp; host or cells: Chinese hamster ovary cell line
Protocol: Aliquots were collected at 0, 2, 4, 8 and 24 hrs and centrifuged to obtain plasma. These plasma samples were then diluted in potassium acetate buffer (pH 4.0) and assayed for GAA activity using the 4-methylumbeliferyl-α-glucose (4-MUG) fluorogenic substrate. The measured GAA activity for individual samples at each time point was normalized to the 0 hr and expressed as % of initial activity. Data from 4 independent experiments were analyzed to obtain the mean (and standard deviation) and plotted versus time to assess the loss of enzyme activity over this time course.
Aliquots were collected at 0, 3 and 6 hrs and centrifuged to obtain plasma. These plasma samples were then diluted in potassium acetate buffer (pH 4.0) and assayed for GAA activity using the 4-methylumbeliferyl-α-glucose (4-MUG) fluorogenic substrate. The measured GAA activity for individual samples at each time point was normalized to the 0 hr and expressed as % of initial activity.
Based on human plasma PK data, these concentrations are readily obtainable in the clinic.

[5] = stored at 2 to 8° C.; patient instructions for Myozyme; cited from earlier work
[6] = reported value; cited from earlier work
GAA KO mice [7] = assay: Tissue glycogen reduction in GAA KO mice; format: in vivo; details: Myozyme 40 mg/kg IV every other week for 8 weeks, 1-DNJ-HCl 30 mg/kg oral 30 minutes prior where co-administered
Protocol: Glycogen reduction with Myozyme™ alone was 93±1%, 41±4%, 69±3%, and 18±4%, in heart, diaphragm, soleus, and quadriceps, respectively, relative to untreated mice.
Twelve-week old male GAA KO mice were administered a single dose of Myozyme™ (40 mg/kg) via bolus tail vein injection every other week for 8 weeks. To prevent anaphylaxis, before the third and fourth Myozyme™ injection, diphenhydramine (10 mg/kg intraperitoneally) was administered 10 min before Myozyme™ injection. […] Mice were euthanized 14 days after the last Myozyme™ administration.
Glycogen levels in heart, diaphragm, soleus, and quadriceps were then measured. […] Briefly, homogenates were prepared by homogenizing ˜50 mg tissue for 3-5 seconds on ice with a microhomogenizer in 200 μL deionized water. Supernatants were heat denatured (99° C. for 10 min) to remove endogenous amyloglucosidase activity. Denatured lysates (4 μL) were then analyzed in duplicate by addition of 36 μL water with and without 10 μL of 800 U/mL of amyloglucosidase (Sigma Aldrich, St. Louis, Mo.) and incubated for 1 hour at 50° C. The reaction was stopped by inactivation at 100° C. for 10 min. Finally, 200 μL of glucose reagent (Sigma) was added absorbance read at 340 nm on Spectramax. A standard curve ranging from 5 μg/mL to 400 μg/mL Type III rabbit liver glycogen (Sigma) was run each day for conversion of absorbance to absolute glycogen units. Simultaneously, the amount of protein was determined in tissue homogenates using the Micro BCA Protein Assay (Pierce, Rockford, Ill.) following the manufacturer's instructions. The glycogen content of each sample was normalized to protein, and data were finally expressed as micrograms of glycogen per milligram of protein (μg/mg protein).

rhGAA activity in whole blood with 1-DNJ-HCl (rhGAA (Myozyme™); 50 μM 1-DNJ-HCl, 37° C., throughout 24 hrs) | Molecule | increase of uptake of rhGAA in heart and diaphragm (GAA KO mouse; GAA KO mice, 100 mg/kg p.o., regimen including administration prior to rhGAA injection) | rhGAA uptake in the heart and diaphragm (GAA activity) (GAA KO mouse; GAA KO mouse, co-administered with rhGAA versus ERT monotherapy) | prevention of GAA denaturation and loss of enzyme activity [1] | GAA levels in patient-derived cell lines [2] | thermal stability of rhGAA (heat required to denature) ([3]; pH 7.4, 100 μM 1-DNJ-HCl, compared to formulation without the ASSC) | effect of co-administration on Myozyme tissue uptake (GAA KO mice [4]; 10, 100, 1000 mg/kg oral 1-DNJ-HCl with Myozyme 10 mg/kg IV, up to 7 days post injection) | stabilization of rhGAA in whole blood (rhGAA (Myozyme™); high 1-DNJ-HCl concentrations (50 and 100 μM), range tested 0-100 μM) | time the product is stable on storage [5] | thermal stability of Myozyme alone ([3]; lysosomal pH (5.2) versus ER pH (7.4), no ASSC) | Myozyme tissue uptake (as a measure of GAA activity) (GAA KO mice [4]; Myozyme 10 mg/kg IV once per week, 7 days post injection, all groups) | plasma half-life of Myozyme (reported) [6] | glycogen reduction in diaphragm relative to untreated mice (GAA KO mice [7]) [%] | glycogen reduction in heart relative to untreated mice (GAA KO mice [7]) [%] | glycogen reduction in quadriceps relative to untreated mice (GAA KO mice [7]) [%] | glycogen reduction in soleus relative to untreated mice (GAA KO mice [7]) [%]
remained completely active | OC[C@H]1NC[C@H](O)[C@@H](O)[C@@H]1O [1-DNJ-HCl, 1-deoxynorjirimycin hydrochloride] | approximately 2 fold | increased | can prevent GAA denaturation and loss of enzyme activity | increased GAA levels alone and in combination with hrGAA | required significantly more heat to denature | dose-dependent increase | best for stabilizing rhGAA and preventing enzyme inactivation | – | – | – | – | – | – | – | –
– | Myozyme: alglucosidase alfa, human acid α-glucosidase produced by recombinant DNA technology in a Chinese hamster ovary cell line (Genzyme) | – | – | – | – | – | – | – | up to 24 hours | much more stable at lysosomal pH (5.2) than at ER pH (7.4) | declined | more than 3 hrs | 41±4 | 93±1 | 18±4 | 69±3
